Publication PMC7442650, “A machine learning-based chemoproteomic approach to identify drug targets and binding sites in complex proteomes” (Nature Communications, 2020)
Read-outs that look alike come from different tables or passages of the source.

Assays:
FKBP1A = FKBP1A (Homo sapiens, UniProt P62942)
[1] = biological target: ATP1A1 (Sodium/potassium-transporting ATPase subunit alpha-1) (Homo sapiens, UniProt P05023); assay: LiP-Quant, membrane enriched HeLa eluate
Experimental: (§3) HeLa cells were lysed as above (lysate) however 0.3% n-dodecyl-β-D-maltoside (DDM) was added prior to lysis. […] Beads were then centrifuged at 300g for 30 s to pellet and the supernatant was aspirated. Beads were then washed six times (300g, 30 s between washes) and finally eluted in 400 µl of 0.5 M N-acetyl glucosamine (in LiP buffer without detergent) at 4 °C for 30 min. Beads were pelleted at 300g for 30 s and eluate was collected and protein was quantified by BCA test. LiP-Quant assay was performed with membrane enriched eluate in the same manner as described for standard HeLa lysate.

[2] = biological target: LDLR (Low-density lipoprotein receptor) (Homo sapiens, UniProt P01130); assay: LiP-Quant, membrane enriched HeLa eluate
Experimental: as §3

[3] = biological target: T1, RBM27 (RNA-binding protein 27) (Homo sapiens, UniProt Q9P2N5); assay: LiP-Quant, membrane enriched HeLa eluate
T1 sequence (Q9P2N5 1-1060): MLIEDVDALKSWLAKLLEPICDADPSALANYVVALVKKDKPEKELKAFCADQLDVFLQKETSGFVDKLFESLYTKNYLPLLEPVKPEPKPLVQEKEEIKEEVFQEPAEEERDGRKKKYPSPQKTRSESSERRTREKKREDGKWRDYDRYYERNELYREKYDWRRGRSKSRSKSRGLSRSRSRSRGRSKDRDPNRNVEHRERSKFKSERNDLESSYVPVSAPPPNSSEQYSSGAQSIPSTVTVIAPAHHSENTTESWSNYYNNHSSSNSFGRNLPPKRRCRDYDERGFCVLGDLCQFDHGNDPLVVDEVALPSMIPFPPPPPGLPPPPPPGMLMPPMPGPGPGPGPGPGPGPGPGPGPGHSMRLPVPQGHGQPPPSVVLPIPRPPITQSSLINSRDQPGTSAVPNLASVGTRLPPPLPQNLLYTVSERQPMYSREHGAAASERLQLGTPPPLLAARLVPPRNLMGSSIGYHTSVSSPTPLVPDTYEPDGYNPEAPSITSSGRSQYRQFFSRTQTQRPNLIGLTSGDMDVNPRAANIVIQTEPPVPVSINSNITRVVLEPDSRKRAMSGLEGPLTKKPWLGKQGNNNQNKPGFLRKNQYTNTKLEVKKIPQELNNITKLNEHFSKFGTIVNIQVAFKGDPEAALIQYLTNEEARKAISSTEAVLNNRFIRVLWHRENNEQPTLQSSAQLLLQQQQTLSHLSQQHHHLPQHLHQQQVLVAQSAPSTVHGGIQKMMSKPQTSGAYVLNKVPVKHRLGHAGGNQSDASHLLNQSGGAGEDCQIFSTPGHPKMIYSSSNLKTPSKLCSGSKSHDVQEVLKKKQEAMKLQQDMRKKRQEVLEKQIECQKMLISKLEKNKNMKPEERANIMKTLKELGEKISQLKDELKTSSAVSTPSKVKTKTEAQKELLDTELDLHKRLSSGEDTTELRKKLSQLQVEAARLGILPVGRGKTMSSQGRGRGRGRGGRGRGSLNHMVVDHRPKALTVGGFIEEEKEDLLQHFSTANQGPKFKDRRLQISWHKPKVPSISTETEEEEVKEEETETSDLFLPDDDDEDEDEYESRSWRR
Experimental: as §3

MYH9 (Myosin-9) = MYH9 (Myosin-9) (Homo sapiens, UniProt P35579); assay: LiP-Quant, membrane enriched HeLa eluate
Experimental: as §3

PP2A/B (PPP2CA;PPP2CB) = assay: LiP-Quant, HeLa lysate; assay type: binding, human
PP1 = assay: LiP-Quant, HeLa lysate; assay type: binding, human; settings: 16 peptides, read-out: median EC50 across LiP-Quant peptides
From the text: Next, we focused on kinases and phosphatases as drug targets of particular pharmacological interest, given their frequent dysregulation in disease, particularly in cancer. One common issue with these classes of targets is their variable selectivity, as some of these drugs have more than one protein target in the cell, and frequently bind them with different affinities, thus it is important to characterize these subtle differences to determine the specific modes of actions.

PPP1CA = PPP1CA (Homo sapiens, UniProt P62136); assay: LiP-Quant, HeLa lysate; assay type: binding; settings: peptide […]
PPP3CA = PPP3CA (Homo sapiens, UniProt Q08209); assay: LiP-Quant, HeLa lysate; assay type: binding; settings: peptide SDDELGSEEDGFDGATAAAR
PP2A and PP1 = settings: cited from earlier work
MAPK2K1 (MAP2K1) = MAPK2K1 (MAP2K1) (Homo sapiens, UniProt Q02750); assay: LiP-Quant, HeLa lysate; assay type: binding
PLEC (Plectin) = PLEC (Plectin) (Homo sapiens, UniProt Q15149); assay: LiP-Quant, HeLa lysate; assay type: binding; settings: peptide QRAEAER
NQO2 = biological target: T2, NQO2 (Homo sapiens, UniProt P16083); assay: LiP-Quant, HeLa lysate; assay type: binding; settings: peptide EEPIPCTAHWHFGQ
T2 sequence (P16083 1-231): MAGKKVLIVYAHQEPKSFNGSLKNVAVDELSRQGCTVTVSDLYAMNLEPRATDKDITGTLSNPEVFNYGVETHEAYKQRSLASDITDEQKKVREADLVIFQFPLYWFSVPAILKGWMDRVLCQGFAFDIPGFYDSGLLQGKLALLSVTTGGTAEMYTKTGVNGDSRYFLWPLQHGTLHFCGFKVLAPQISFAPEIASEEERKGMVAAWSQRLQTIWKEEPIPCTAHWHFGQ

LIN7C = biological target: T3, LIN7C (Homo sapiens, UniProt Q9NUP9); assay: LiP-Quant, HeLa lysate; assay type: binding; settings: peptide AASEGHSHPR
T3 sequence (Q9NUP9 1-197): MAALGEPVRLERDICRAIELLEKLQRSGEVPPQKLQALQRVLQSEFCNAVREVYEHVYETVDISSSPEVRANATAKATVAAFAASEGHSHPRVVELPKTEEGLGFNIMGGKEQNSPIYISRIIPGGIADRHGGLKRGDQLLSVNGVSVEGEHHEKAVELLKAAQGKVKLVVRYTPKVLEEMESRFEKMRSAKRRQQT

XPO1 (Exportin-1) = XPO1 (Exportin-1) (Homo sapiens, UniProt O14980); assay: LiP-Quant, HeLa lysate; assay type: binding; settings: peptide NQCEGIKK
MAPK2K1 = system: MAPK2K1; set-up: method as in PMID 29191878; settings: read-out: EC50 measured with alternative methods; cited from earlier work
ARI1 = biological target: T4, ARI1 (Saccharomyces cerevisiae, UniProt P53111); assay: LiP-Quant, S. cerevisiae lysates; assay type: binding; settings: wild type yeast lysate
T4 construct: Cell lysates from at least three independent biological replicates were aliquoted in equivalent volumes containing 100 µg of proteome sample; endogenous in cells; host or cells: S. cerevisiae (Euroscarf strains), cryo-milled lysate
Experimental: (§1) To discriminate between these two cases, the same LiP-Quant experiment was performed with lysates where TOR signaling was impaired via a mutation in the tor1 gene and a deletion of the fpr1 gene (tor1-1 Δfpr1)[20].
(§2) Saccharomyces cerevisiae: Cell lysates from at least three independent biological replicates were aliquoted in equivalent volumes containing 100 µg of proteome sample and incubated for 10 min at 25 °C with the drug of interest. […] Samples were then heated again at 98 °C for 3 min in a thermocycler. These samples were then subjected to complete digestion in denaturing conditions as described below.

SYEC = biological target: T5, SYEC (Saccharomyces cerevisiae, UniProt P46655); assay: LiP-Quant, S. cerevisiae lysates; assay type: binding; settings: wild type yeast lysate
T5 construct: Cell lysates from at least three independent biological replicates were aliquoted in equivalent volumes containing 100 µg of proteome sample; endogenous in cells; host or cells: S. cerevisiae (Euroscarf strains), cryo-milled lysate
Experimental: as §1, §2

[4] = biological target: T6, FPR1 (FK506-binding protein 1, P20081) (Saccharomyces cerevisiae, UniProt P20081); assay: LiP-Quant, S. cerevisiae lysates (wild type); settings: Yeast WT; for EC50: EC50 (nM)
T6 construct: Cell lysates from at least three independent biological replicates were aliquoted in equivalent volumes containing 100 µg of proteome sample; endogenous in cells; host or cells: S. cerevisiae wild type (Euroscarf), cryo-milled lysate
T6 sequence (P20081 1-114): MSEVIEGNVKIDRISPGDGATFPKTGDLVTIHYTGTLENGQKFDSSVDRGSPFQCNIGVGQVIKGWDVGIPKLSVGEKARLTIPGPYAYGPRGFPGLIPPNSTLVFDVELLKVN

[5] = FKBP1A peptide LVFDVELLK, Decreasing
[6] = FKBP1A peptide VFDVELLK, Decreasing
[7] = FKBP1A peptide YTGMLEDGK, Decreasing

Chain of LDLR (Low-density lipoprotein receptor) (P01130 22-860): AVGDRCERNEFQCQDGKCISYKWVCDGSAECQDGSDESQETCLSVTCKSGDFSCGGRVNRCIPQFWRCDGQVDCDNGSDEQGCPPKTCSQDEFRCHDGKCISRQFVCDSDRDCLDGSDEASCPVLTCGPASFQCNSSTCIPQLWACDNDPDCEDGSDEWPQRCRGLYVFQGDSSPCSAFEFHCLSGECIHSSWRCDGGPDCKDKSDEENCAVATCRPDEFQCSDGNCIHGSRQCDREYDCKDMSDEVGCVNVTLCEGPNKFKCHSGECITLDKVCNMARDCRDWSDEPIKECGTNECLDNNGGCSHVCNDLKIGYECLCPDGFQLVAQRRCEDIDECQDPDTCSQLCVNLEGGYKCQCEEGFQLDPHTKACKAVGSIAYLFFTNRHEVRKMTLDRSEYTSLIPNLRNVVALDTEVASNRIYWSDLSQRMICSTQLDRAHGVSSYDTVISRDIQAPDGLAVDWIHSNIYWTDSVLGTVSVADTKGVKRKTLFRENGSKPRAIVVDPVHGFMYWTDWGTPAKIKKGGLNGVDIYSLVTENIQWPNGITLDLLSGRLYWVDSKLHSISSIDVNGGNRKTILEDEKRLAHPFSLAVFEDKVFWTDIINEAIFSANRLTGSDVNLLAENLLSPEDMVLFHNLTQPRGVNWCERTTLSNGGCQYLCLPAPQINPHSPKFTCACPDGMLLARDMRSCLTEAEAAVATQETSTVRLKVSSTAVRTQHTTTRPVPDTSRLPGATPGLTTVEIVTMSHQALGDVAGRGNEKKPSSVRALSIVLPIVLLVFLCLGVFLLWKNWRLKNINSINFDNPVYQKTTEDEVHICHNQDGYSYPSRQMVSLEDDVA
Chain of FKBP1A (P62942 whole entry): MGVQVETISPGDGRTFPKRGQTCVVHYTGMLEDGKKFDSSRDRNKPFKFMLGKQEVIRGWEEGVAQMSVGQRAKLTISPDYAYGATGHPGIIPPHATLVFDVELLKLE
Chain of MYH9 (Myosin-9) (P35579 whole entry): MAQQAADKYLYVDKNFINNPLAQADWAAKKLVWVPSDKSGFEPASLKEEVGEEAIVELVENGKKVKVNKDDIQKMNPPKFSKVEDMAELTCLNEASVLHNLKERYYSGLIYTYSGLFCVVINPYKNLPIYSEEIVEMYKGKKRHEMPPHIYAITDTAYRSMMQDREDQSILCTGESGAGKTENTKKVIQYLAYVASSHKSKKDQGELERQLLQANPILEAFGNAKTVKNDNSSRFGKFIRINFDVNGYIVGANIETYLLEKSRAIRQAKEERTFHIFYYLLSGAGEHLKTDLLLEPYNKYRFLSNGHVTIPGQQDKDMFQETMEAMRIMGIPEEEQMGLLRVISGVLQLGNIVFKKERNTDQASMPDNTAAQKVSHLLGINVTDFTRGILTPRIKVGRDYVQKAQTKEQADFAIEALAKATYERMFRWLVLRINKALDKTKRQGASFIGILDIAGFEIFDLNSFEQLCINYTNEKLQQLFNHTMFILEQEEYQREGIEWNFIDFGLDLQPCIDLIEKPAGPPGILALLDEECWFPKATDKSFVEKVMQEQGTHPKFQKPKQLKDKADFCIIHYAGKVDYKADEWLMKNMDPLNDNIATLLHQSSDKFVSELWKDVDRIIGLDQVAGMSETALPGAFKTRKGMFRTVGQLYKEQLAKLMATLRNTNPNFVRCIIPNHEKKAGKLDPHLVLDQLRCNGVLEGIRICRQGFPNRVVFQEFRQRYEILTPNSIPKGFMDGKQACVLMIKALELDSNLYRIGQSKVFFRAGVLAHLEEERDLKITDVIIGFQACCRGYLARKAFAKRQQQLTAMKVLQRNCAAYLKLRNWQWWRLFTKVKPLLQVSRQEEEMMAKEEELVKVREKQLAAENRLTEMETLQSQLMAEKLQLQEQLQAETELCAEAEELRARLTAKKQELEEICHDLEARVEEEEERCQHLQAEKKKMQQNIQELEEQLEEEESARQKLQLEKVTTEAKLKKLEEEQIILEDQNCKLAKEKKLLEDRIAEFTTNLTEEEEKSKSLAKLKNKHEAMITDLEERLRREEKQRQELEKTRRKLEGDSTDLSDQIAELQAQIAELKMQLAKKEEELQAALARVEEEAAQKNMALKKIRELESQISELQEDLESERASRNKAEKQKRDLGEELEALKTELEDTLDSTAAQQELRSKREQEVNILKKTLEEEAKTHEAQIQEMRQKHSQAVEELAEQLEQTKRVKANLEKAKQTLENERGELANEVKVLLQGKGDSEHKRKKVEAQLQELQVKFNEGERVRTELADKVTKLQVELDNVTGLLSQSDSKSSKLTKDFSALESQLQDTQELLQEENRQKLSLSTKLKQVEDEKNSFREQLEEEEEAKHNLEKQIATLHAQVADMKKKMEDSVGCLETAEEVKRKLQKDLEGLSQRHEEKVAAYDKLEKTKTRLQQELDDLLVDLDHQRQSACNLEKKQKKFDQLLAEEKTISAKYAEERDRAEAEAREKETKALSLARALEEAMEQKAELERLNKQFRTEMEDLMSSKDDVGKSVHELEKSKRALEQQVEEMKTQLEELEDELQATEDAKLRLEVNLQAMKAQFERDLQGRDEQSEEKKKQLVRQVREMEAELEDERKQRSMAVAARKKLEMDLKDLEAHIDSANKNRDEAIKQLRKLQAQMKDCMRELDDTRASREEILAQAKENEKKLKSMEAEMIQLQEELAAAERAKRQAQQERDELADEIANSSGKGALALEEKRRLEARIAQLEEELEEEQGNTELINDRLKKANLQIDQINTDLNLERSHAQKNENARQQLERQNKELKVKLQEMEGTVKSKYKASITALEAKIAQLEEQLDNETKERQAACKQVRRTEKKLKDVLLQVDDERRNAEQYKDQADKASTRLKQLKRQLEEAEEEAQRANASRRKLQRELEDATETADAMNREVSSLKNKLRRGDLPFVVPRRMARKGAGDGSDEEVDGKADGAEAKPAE
Chain of XPO1 (Exportin-1) (O14980 whole entry): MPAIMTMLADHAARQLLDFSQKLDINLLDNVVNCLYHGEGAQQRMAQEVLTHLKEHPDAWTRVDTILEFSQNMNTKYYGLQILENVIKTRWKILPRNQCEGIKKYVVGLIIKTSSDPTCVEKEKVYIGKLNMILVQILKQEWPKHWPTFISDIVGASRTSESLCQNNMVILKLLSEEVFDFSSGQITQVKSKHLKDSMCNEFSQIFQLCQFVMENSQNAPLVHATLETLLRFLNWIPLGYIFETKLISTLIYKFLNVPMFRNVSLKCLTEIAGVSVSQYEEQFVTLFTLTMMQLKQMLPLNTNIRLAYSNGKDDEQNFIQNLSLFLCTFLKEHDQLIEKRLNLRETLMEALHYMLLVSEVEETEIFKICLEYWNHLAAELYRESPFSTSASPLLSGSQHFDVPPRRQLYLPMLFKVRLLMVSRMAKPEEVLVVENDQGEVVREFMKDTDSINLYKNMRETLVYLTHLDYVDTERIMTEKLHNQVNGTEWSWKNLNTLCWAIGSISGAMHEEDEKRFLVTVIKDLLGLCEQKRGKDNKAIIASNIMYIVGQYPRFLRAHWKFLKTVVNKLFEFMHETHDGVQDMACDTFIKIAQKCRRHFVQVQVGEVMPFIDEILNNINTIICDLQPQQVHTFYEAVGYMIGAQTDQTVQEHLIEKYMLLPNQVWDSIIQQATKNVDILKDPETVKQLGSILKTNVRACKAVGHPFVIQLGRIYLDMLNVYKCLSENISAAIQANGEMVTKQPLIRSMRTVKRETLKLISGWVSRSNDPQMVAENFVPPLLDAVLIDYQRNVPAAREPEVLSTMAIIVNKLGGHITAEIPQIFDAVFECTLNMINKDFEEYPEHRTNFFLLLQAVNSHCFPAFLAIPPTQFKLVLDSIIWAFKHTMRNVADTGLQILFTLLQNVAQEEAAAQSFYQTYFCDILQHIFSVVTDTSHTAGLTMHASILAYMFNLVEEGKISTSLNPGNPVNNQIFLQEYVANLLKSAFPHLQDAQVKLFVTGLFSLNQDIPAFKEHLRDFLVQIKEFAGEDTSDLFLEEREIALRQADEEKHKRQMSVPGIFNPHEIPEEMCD
Chain of PPP3CA (P63098 2-170, other chains not shown): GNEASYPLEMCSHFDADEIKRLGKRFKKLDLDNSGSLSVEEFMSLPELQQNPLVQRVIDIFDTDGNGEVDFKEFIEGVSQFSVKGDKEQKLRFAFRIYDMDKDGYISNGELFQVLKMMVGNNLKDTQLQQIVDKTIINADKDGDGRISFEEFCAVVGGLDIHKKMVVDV
Chain of MAPK2K1 (MAP2K1) (Q02750 whole entry): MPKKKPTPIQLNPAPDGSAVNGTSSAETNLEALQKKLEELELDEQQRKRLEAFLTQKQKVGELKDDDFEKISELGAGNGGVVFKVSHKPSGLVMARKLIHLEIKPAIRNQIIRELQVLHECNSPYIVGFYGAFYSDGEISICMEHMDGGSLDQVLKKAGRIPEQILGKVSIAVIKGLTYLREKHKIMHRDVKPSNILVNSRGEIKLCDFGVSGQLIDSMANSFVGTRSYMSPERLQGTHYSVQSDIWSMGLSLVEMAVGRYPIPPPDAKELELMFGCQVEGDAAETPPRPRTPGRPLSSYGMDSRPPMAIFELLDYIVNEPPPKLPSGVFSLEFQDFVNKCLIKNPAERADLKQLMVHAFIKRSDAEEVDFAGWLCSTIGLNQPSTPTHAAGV
Chain of PPP1CA (P62136 whole entry): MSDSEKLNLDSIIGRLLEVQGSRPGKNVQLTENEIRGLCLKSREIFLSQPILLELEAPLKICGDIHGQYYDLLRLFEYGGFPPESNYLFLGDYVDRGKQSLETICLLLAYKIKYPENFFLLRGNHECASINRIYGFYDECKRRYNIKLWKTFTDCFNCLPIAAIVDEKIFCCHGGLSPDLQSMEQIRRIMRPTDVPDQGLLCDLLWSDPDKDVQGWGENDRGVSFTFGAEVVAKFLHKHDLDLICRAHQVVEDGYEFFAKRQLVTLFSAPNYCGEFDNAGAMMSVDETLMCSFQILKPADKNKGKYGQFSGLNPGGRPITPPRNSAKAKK

C=CC[C@@H]1/C=C(\C)C[C@H](C)C[C@H](OC)[C@H]2O[C@@](O)(C(=O)C(=O)N3CCCC[C@H]3C(=O)O[C@H](/C(C)=C/[C@@H]3CC[C@@H](O)[C@H](OC)C3)[C@H](C)[C@@H](O)CC1=O)[C@H](C)C[C@@H]2OC [FK506]
LiP Rank (FKBP1A; [5]): 8
Score (FKBP1A; [5]): 1.86
LiP Rank (FKBP1A; [6]): 10
Score (FKBP1A; [6]): 1.73
LiP Rank (FKBP1A; [7]): 4
Score (FKBP1A; [7]): 3.01
LiP Rank (FKBP1A; FKBP1A peptide […], Decreasing): 11
Score (FKBP1A; FKBP1A peptide […], Decreasing): 1.72
Score (FKBP1A; FKBP1A peptide […], Increasing): 3.49
Score (FKBP1A; FKBP1A peptide […], Increasing, Supplementary Data 4): 3.820

C[C@@H]1O[C@@H](O[C@@H]2C=C3CC[C@@H]4[C@H](CC[C@]5(C)[C@@H](c6ccc(=O)oc6)CC[C@]45O)[C@@]3(C)CC2)[C@H](O)[C@H](O)[C@H]1O [proscillaridin A]
EC50 [1]: 16.4 nM
DRC ([1]; peptide AVAGDASESALLK): 0.9716
LiP Rank ([1]; peptide AVAGDASESALLK): 1
LiP Score ([1]; peptide AVAGDASESALLK): 4.437
EC50 [2]: 27.3 nM
DRC ([2]; peptide TILEDEKR): 0.9716
LiP Rank ([2]; peptide TILEDEKR): 2
LiP Score ([2]; peptide TILEDEKR): 4.346
EC50 [3]: 17.3 nM
DRC ([3]; peptide LSSGEDTTELR): 0.9721
LiP Rank ([3]; peptide LSSGEDTTELR): 3
LiP Score ([3]; peptide LSSGEDTTELR): 4.331
EC50 (MYH9 (Myosin-9)): 31 nM
DRC (MYH9 (Myosin-9); peptide HSQAVEELAEQLEQTKR): 0.9583
LiP Rank (MYH9 (Myosin-9); peptide HSQAVEELAEQLEQTKR): 4
LiP Score (MYH9 (Myosin-9); peptide HSQAVEELAEQLEQTKR): 4.317

COC[C@@H]([C@H](O)[C@H](O)C(=O)NCC[C@H](C)c1nc(/C=C/C[C@@H]2O[C@]3(C[C@@H](O)[C@@H]2C)O[C@H]([C@H](C[C@H](O)[C@H](C)[C@H](O)[C@H](C)/C=C(C)/C(C)=C/C=C/C(C)=C\C#N)OC)[C@H](OP(=O)(O)O)C3(C)C)co1)N(C)C [Calyculin A]
EC50 (PP2A/B (PPP2CA;PPP2CB); HeLa lysate, 12 peptides, read-out: median EC50 across LiP-Quant peptides): 18 nM
LiP Score (PP2A/B (PPP2CA;PPP2CB); peptide AHQLVMEGYNWCHDR, PPP2CA): 4.613
EC50 (PP2A/B (PPP2CA;PPP2CB); peptide AHQLVMEGYNWCHDR, PPP2CA, read-out: EC50): 11.4 nM
LiP Score (PP2A/B (PPP2CA;PPP2CB); peptide NVVTIFSAPNYCYR, PPP2CA): 4.820
EC50 (PP2A/B (PPP2CA;PPP2CB); peptide NVVTIFSAPNYCYR, PPP2CA, read-out: EC50): 19.3 nM
LiP Score (PP2A/B (PPP2CA;PPP2CB); peptide YSFLQFDPAPR, PPP2CA): 5.385
EC50 (PP2A/B (PPP2CA;PPP2CB); peptide YSFLQFDPAPR, PPP2CA, read-out: EC50): 18.2 nM
EC50 (PP1): 63 nM
LiP Rank (PPP1CA): 196
LiP Score (PPP1CA): 1.364
LiP Rank (PPP3CA): 2187
LiP Score (PPP3CA): 0.782
EC50 ratio difference between PP2A and PP1 (PP2A and PP1): 3.5 fold

Cn1cnc2c(F)c(Nc3ccc(Br)cc3Cl)c(C(=O)NOCCO)cc21 [Selumetinib]
LIPscore (MAPK2K1 (MAP2K1); peptide VSIAVIK (selumetinib sheet) or best peptide of the protein (Supp Data 7)): 2.617
LIPRank (MAPK2K1 (MAP2K1); peptide VSIAVIK (selumetinib sheet) or protein level (Supp Data 7)): 3
DRC (PLEC (Plectin); dose-response correlation): 0.9991
LIPRank (PLEC (Plectin)): 1
LIPscore (PLEC (Plectin)): 3.316
DRC (NQO2; dose-response correlation): 0.9666
LIPRank (NQO2): 2
LIPscore (NQO2): 3.07
DRC (LIN7C; dose-response correlation): 0.9974
LIPRank (LIN7C): 4
LIPscore (LIN7C): 2.585
DRC (XPO1 (Exportin-1); dose-response correlation): 0.9996
LIPRank (XPO1 (Exportin-1)): 5
LIPscore (XPO1 (Exportin-1)): 2.504
EC50 (MAPK2K1): 41 nM

CO[C@H]1C[C@@H]2CC[C@@H](C)[C@@](O)(O2)C(=O)C(=O)N2CCCC[C@H]2C(=O)O[C@H]([C@H](C)C[C@@H]2CC[C@@H](O)[C@H](OC)C2)CC(=O)[C@H](C)/C=C(\C)[C@@H](O)[C@@H](OC)C(=O)[C@H](C)C[C@H](C)/C=C/C=C/C=C/1C [Rapamycin]
LiP-Quant score (ARI1): > 2.5
LiP-Quant score (SYEC): > 2.5
EC50 ([4]; FPR1 peptide _GWDVGIPK_): 144 nM
EC50 ([4]; FPR1 peptide _TGDLVTIH_): 619 nM
LiP Rank ([4]; FPR1 peptide _GSPFQCNIGVGQVIK_): 1
LiP Score ([4]; FPR1 peptide _GSPFQCNIGVGQVIK_): 3.228
LiP Rank ([4]; FPR1 peptide _GWDVGIPK_): 2
LiP Score ([4]; FPR1 peptide _GWDVGIPK_): 3.111
LiP Rank ([4]; FPR1 peptide _RISPGDGATFPK_): 4
LiP Score ([4]; FPR1 peptide _RISPGDGATFPK_): 2.974
LiP Rank ([4]; FPR1 peptide _TGDLVTIH_): 3
